From patent US20250382264A1, “HETEROCYCLE-CONTAINING AMINO ACID COMPOUND AND COMPLEX” (AICHI STEEL CORPORATION, priority 2022, published 2025)

How the values were obtained:
[1] = Absorbance of aqueous iron complex solution irradiated with ultraviolet rays (253.7 nm); format: physicochemical; conditions: aqueous solution of the Fe complex of the named ligand, Fe 100 μM, pH 5.0, ultraviolet 253.7 nm, 10-mm cell
Protocol: For comparison, absorbance measurement was performed using an aqueous solution of each of an iron complex of ethylenediaminetetraacetic acid (EDTA) (hereinafter, referred to as “Fe-EDTA”), an iron complex of diethylenetriamine-N,N,N',N'',N''-pentaacetic acid (DTPA) (hereinafter, referred to as “Fe-DTPA”), an iron complex of hydroxybenzylethylenediamine (HBED) (hereinafter, referred to as “Fe-HBED”), an iron complex of N,N'-ethylene-bis([…]) (hereinafter, referred to as “Fe-EDDHA”), an iron complex of citric acid, and an iron complex (hereinafter, referred to as “Fe-PDMA”) of a compound represented by the following formula (hereinafter, referred to as “PDMA”). […] Subsequently, a deionized water was added to fill up to 220 mL. This aqueous solution was left to stand at a temperature of 25° C. for 1 hour to yield an aqueous solution of an iron complex having an Fe concentration of 100 μM (5.6 ppm). Thereafter, the absorbance of this aqueous complex solution was measured. […] Subsequently, a deionized water was added to fill up to 220 mL. […] Thereafter, the absorbance of this aqueous complex solution was measured in the same manner as described above (see Table 1). […] Subsequently, about 220 mL of a deionized water was added to the resultant mixture to yield an aqueous complex solution having an Fe concentration of 100 μM (5.6 ppm).

[2] = test system: corn variety "Launcher 82"; experiment: Plant cultivation test (1): hydroponic cultivation of corn, leaf color (SPAD value); format: in vivo; conditions: 3 mL iron material with Fe 100 μM, 3rd day after administration, average of two pots
Protocol: Seeds of corn variety “Launcher 82” were placed on a paper towel wetted with tap water. 8 days after germination, the seedlings were immersed in 45 mL of a hydroponic nutrient solution (a liquid based on the formulation in the Horticultural Experiment Station). 2 days after that, 3 mL of iron materials including various aqueous complex solutions were administered to the seedlings. Then, on the 3rd day after the administration of the iron materials, the leaf color (SPAD value) of corn was measured. This hydroponic cultivation was performed in two pots, and the average value of the SPAD values was calculated. For comparison, an experiment of administering only iron sulfate and an experiment of administering no iron material were also performed.

Compound	Absorbance [1]	SPAD value Average [2]
O=C([O-])CN(CCN(CC(=O)[O-])CC(=O)[O-])CC(=O)[O-].[Fe+3] [Fe-EDTA, iron complex of ethylenediaminetetraacetic acid]	1.452	–
O=S(=O)([O-])[O-].[Fe+2] [Fe only, iron sulfate]	–	9.5
iron complex of hydroxybenzylethylenediamine [Fe-HBED]	0.914	–
iron complex of diethylenetriamine-N,N,N′,N″,N″-pentaacetic acid [Fe-DTPA]	1.073	–
O=C(O)C(O)CCN[C@@H](CCN1CCC[C@H]1C(=O)O)C(=O)O (stereo partly shown) [Fe-PDMA]	0.644	–

Further lines, with some results ahead:

Absorbance [1]	Compound	SPAD value Average [2]
0.195	N[C@@H](CCN1CC[C@H]1C(=O)O)C(=O)O [Compound V8]	–
0.378	O=C(O)CN[C@@H](CCN1CCC[C@H]1C(=O)O)C(=O)O [Compound V6]	–
0.144	CC(=O)N[C@@H](CCN1CCC[C@H]1C(=O)O)C(=O)O [Compound V4]	–
0.350	O=C(CO)N[C@@H](CCN1CCC[C@H]1C(=O)O)C(=O)O [Compound V5]	–
0.193	O=C(O)[C@@H](O)CCN1CCC[C@H]1C(=O)O [Compound V2]	–
0.332	O=C(O)[C@@H](O)CCN1CC[C@H]1C(=O)O [Compound V9]	–
0.190	N[C@@H](CCN1CCC[C@H]1C(=O)O)C(=O)O [Compound V3]	–
0.354	CN(CCC(=O)O)[C@@H](CCN1CCC[C@H]1C(=O)O)C(=O)O [Compound V7]	–
